We go through 13 compounds from US20100303758A1, “Novel Glucocorticoid Receptor Agonists” (priority 2009, published 2010).

Experiment [1] has as its target T1, human GR (Homo sapiens, UniProt P04150).
T1 construct: SW1353 naturally expresses human GR; endogenous in cells; host or cells: human chondrosarcoma cell-line SW1353 stably transfected with an MMTV-luciferase reporter construct
T1 sequence (P04150 1-777): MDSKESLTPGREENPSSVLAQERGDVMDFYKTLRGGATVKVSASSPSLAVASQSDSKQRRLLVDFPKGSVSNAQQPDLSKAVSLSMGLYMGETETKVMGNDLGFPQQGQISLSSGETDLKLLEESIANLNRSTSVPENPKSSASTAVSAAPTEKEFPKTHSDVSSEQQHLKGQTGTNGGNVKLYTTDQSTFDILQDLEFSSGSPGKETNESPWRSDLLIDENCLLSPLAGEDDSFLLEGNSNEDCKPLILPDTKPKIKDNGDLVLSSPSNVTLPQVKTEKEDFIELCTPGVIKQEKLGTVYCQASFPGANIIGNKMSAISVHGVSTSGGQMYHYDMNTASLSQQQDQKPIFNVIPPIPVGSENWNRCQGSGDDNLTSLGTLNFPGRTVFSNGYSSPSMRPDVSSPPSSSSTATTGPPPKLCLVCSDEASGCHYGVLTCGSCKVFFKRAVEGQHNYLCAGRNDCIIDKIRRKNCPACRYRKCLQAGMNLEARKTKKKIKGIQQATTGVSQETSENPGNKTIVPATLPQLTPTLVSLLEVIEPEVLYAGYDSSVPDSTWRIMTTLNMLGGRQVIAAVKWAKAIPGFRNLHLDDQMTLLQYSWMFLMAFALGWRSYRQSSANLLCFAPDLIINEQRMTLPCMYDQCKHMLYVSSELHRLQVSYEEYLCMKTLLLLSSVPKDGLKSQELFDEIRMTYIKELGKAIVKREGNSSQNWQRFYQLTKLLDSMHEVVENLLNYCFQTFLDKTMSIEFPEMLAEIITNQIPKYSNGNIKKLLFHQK
Description: GR agonist potency, MMTV-luciferase reporter in SW1353 cells. Conditions: human chondrosarcoma cell-line SW1353 stably transfected with MMTV-luciferase reporter; approx. 18 hours; data as percentage of 1 μM dexamethasone positive control. Format: cell-based. How it is done: Glucococorticoid receptor (GR) agonist potency was determined in the human chondrosarcoma cell-line SW1353 stably transfected with an MMTV-luciferase reporter construct. SW1353 naturally expresses human GR, which on binding a glucocorticoid agonist activates glucocorticoid response elements within the MMTV promoter, driving expression of the luciferase gene.
Frozen SW1353 cells were revived in DMEM medium, without sodium pyruvate or phenol red, supplemented with 2 mM L-glutamine, 1 μg/ml insulin, 2 mg/ml lactalbumin hydrosylate and 0.5 μg/ml ascorbate. Cells were seeded at approximately 5000 cells/well (35 μl/well) in 384-well clear bottom, tissue culture treated plates. Steroid dose-response dilutions were prepared in steroid diluent (PBS containing 2.5% (v/v) DMSO and 0.05% (v/v) pluronic detergent) and 5 μl added to each well. The volume was made up to 50 μl per well with steroid diluent. Positive control wells contained 1 μM dexamethasone. Plates were incubated for approximately 18 hours at 37° C. in an air/5% CO2 atmosphere in a humidified incubator before Britelite reagent (10 μl; Perkin-Elmer) was added to each well. Each plate was incubated for 2 minutes in the dark and luminescence quantified using a LJL Biosystems Analyst luminometer. Data for test compounds (expressed as percentage of the dexamethasone positive control) were used to construct dose response curves from which EC50 values were estimated.
On the technique in general: A reporter such as luciferase makes a cellular process visible.

Experiment [2] can be described thus: Inhibition of TNF-α release from LPS stimulated isolated human PBMC. The class given is cell-based. Conditions: Homo sapiens, PBMC, read-out: IC50 (nM) for inhibition of TNF-α release. Here is the method:
The anti-inflammatory activity of the compounds against human leukocytes in vitro was also evaluated by determining inhibition of tumour necrosis factor-α (TNF-α) release from lipopolysaccharide (LPS) stimulated isolated human peripheral mononuclear cells (PBMC).
Peripheral venous blood from healthy, non-medicated donors was collected using ethylenediaminetetraacetic acid (EDTA) as the anti-coagulant. For PBMC preparation, samples of blood were diluted 1:1 with sterile phosphate buffered saline and then separated using ACCUSPIN™ System-Histopaque®-1077 tubes (Sigma-Aldrich, St Louis, Mo.), centrifuged at 400 g for 35 minutes. Buffy coat cells were removed into PBS, centrifuged at 200 g for 10 minutes and re-suspended in PBMC assay buffer (Hanks Balanced Salt Solution, 0.28% [w/v] 4-[2-hydroxyethyl]-1-piperazineethanesulfonic acid [HEPES], 0.01% [w/v] low-endotoxin bovine serum albumin [BSA]. A differential white cell count was performed and PBMC's diluted to 1×10^6 lymphocytes per ml in PBMC assay buffer.
Test compounds were dissolved in DMSO and diluted in PBMC assay buffer (final DMSO concentration 1%) to cover an appropriate concentration range, e.g 0.001 nM to 10000 nM. Samples of test compound solution or vehicle (20 μl) were added into 96-well tissue culture treated plates (Corning) and PBMC (160 μl) added to each well. The assay mixtures were incubated at 37° C. for 1 h in a humidified incubator containing an atmosphere of air supplemented with 5% CO2 before adding LPS (20 μl of 100 ng/ml for PBMC). Plates were returned to the incubator for a further 18 hours, and then centrifuged before recovery of samples of supernatant. TNF-α in the samples was determined using an enzyme-linked immunosorbent assay (ELISA) (Invitrogen kit no CHC-1754; Invitrogen Carlsbad, Calif.) and following the manufacturers instructions. Dose response curves were constructed from which IC50 values were calculated.

As a reminder, the EC50 is the concentration giving half of the maximal effect. Read a high EC50 as lower potency in that assay. Usually IC50 stands for the point on the concentration scale where inhibition reaches its midpoint.

In the case of `C[C@]12C=CC(=O)C=C1[C@@H](F)C[C@H]1[C@@H]3CC[C@](OC(=O)c4ccc(OCc5ccccc5)cc4)(C(=O)CO)[C@@]3(C)C[C@H](O)[C@@]12F` [Example 31, (6alpha,11beta)-6,9-difluoro-11,21-dihydroxy-3,20-dioxopregna-1,4-dien-17-yl 4-(benzyloxy)benzoate], the 50% effective concentration (EC50) in experiment [1] came to 102 nM. For the same compound, the IC50 in experiment [2] amounted to 0.152 nM.

Compound `C[C@]12C=CC(=O)C=C1CC[C@H]1[C@@H]3CC[C@](OC(=O)c4ccc(OCc5ccccc5)cc4)(C(=O)CO)[C@@]3(C)C[C@H](O)[C@@]12F` [Example 32, (11beta)-9-fluoro-11,21-dihydroxy-3,20-dioxopregna-1,4-dien-17-yl 4-(benzyloxy)benzoate] registered an EC50 in experiment [1] of 36 nM. Also, in experiment [2], the IC50 is 0.506 nM.

Compound `C[C@]12C=CC(=O)C=C1CC[C@H]1[C@@H]3CC[C@](OC(=O)c4ccc(Oc5ccccc5)c(O)c4)(C(=O)OCC#N)[C@@]3(C)C[C@H](O)[C@@]12F` [Example 33, cyanomethyl(11beta,17alpha)-9-fluoro-11-hydroxy-17-[(3-hydroxy-4-phenoxybenzoyl)oxy]-3-oxoandrosta-1,4-diene-17-carboxylate] showed an EC50 in experiment [1] of 68.3 nM. Also, the IC50 in experiment [2] is 0.212 nM.

`C[C@]12C=CC(=O)C=C1CC[C@H]1[C@@H]3CC[C@](OC(=O)c4ccc(Sc5ccccc5O)cc4)(C(=O)OCC#N)[C@@]3(C)C[C@H](O)[C@@]12F` [Example 35, cyanomethyl (11beta,17alpha)-9-fluoro-11-hydroxy-17-({4-[(2-hydroxyphenyl)thio]benzoyl}oxy)-3-oxoandrosta-1,4-diene-17-carboxylate] showed an EC50 in experiment [1] of 75.2 nM. Besides, the half-inhibitory concentration (IC50) in experiment [2] came to 0.099 nM.

In experiment [1], `C[C@]12C=CC(=O)C=C1CC[C@H]1[C@@H]3CC[C@](OC(=O)c4ccc(Oc5ccc(O)nc5)cc4)(C(=O)OCC#N)[C@@]3(C)C[C@H](O)[C@@]12F` [Example 36, cyanomethyl (11beta,17alpha)-9-fluoro-11-hydroxy-17-({4-[(6-hydroxypyridin-3-yl)oxy]benzoyl}-oxy)-3-oxoandrosta-1,4-diene-17-carboxylate] displayed a concentration giving a half-maximal response (EC50) of 16.3 nM. The IC50 in experiment [2] came to 0.167 nM.

In experiment [1], `C[C@]12C=CC(=O)C=C1CC[C@H]1[C@@H]3CC[C@](OC(=O)c4ccc(Oc5ccc(O)c(Cl)c5)cc4)(C(=O)OCC#N)[C@@]3(C)C[C@H](O)[C@@]12F` [Example 37, cyanomethyl (11beta,17alpha)-17-{[4-(3-chloro-4-hydroxybhenoxy)-benzoyl]oxy}-9-fluoro-11-hydroxy-3-oxoandrosta-1,4-diene-17-carboxylate] returned an EC50 of 39.7 nM. For the same compound, the IC50 in experiment [2] worked out at 0.201 nM.

For `C[C@]12C=CC(=O)C=C1CC[C@H]1[C@@H]3CC[C@](OC(=O)c4ccc(Sc5ccc(Cl)c(O)c5)cc4)(C(=O)SCC#N)[C@@]3(C)C[C@H](O)[C@@]12F` [Example 38, (11beta,17alpha)-17-{[(cyanomethyl)thio]carbonyl}-9-fluoro-11-hydroxy-3-oxoandrosta-1,4-dien-17-yl 4-[(4-chloro-3-hydroxyphenyl)thio]benzoate], in experiment [1], the EC50 amounted to 54.7 nM. For the same compound, in experiment [2], the IC50 was determined as 0.755 nM.

For `C[C@]12C=CC(=O)C=C1CC[C@H]1[C@@H]3CC[C@](OC(=O)c4ccc(Sc5ccc(Cl)c(O)c5)cc4)(C(=O)OCC#N)[C@@]3(C)C[C@H](O)[C@@]12F` [Example 39, cyanomethyl(11beta,17alpha)-17-({4-[(4-chloro-3-hydroxyphenyl)thio]benzoyl}oxy)-9-fluoro-11-hydroxy-3-oxoandrosta-1,4-diene-17-carboxylate], a half-maximal response in experiment [1] (EC50) required 44.1 nM. Also, the IC50 in experiment [2] is 0.615 nM.

Take `C[C@]12C=CC(=O)C=C1CC[C@H]1[C@@H]3CC[C@](OC(=O)c4ccc(Oc5ccc(Cl)c(O)c5)cc4)(C(=O)SCF)[C@@]3(C)C[C@H](O)[C@@]12F` [Example 40, (11beta,17alpha)-9-fluoro-17-{[(fluoromethyl)thio]carbonyl}-11-hydroxy-3-oxoandrosta-1,4-dien-17-yl 4-(4-chloro-3-hydroxyphenoxy)benzoate]: in experiment [1], the EC50 is 31.2 nM. In addition, in experiment [2], the IC50 is 0.053 nM.

Compound `C[C@@H]1C[C@H]2[C@@H]3C[C@H](F)C4=CC(=O)C=C[C@]4(C)[C@@]3(F)[C@@H](O)C[C@]2(C)[C@@]1(OC(=O)c1ccc(Oc2ccc(Cl)c(O)c2)cc1)C(=O)OCF` [Example 41, Fluoromethyl (6alpha,11beta,16alpha,17alpha)-17-{[4-(4-chloro-3-hydroxyphenoxy)benzoyl]oxy}-6,9-difluoro-11-hydroxy-16-methyl-3-oxoandrosta-1,4-diene-17-carboxylate] registered an EC50 in experiment [1] of 7.73 nM. Also, the IC50 in experiment [2] came to 0.032 nM.

Turning to `C[C@@H]1C[C@H]2[C@@H]3C[C@H](F)C4=CC(=O)C=C[C@]4(C)[C@@]3(F)[C@@H](O)C[C@]2(C)[C@@]1(OC(=O)c1ccc(Oc2ccc(Cl)c(O)c2)cc1)C(=O)OCC#N` [Example 42, Cyanomethyl (6alpha,11beta,16alpha,17alpha)-17-{[4-(4-chloro-3-hydroxyphenoxy)benzoyl]oxy}-6,9-difluoro-11-hydroxy-16-methyl-3-oxoandrosta-1,4-diene-17-carboxylate], the EC50 in experiment [1] is 24.4 nM. Besides, in experiment [2], the IC50 worked out at 0.443 nM.

The compound `C[C@@H]1C[C@H]2[C@@H]3CCC4=CC(=O)C=C[C@]4(C)[C@@]3(F)[C@@H](O)C[C@]2(C)[C@@]1(OC(=O)c1ccc(Oc2ccc(O)c(Cl)c2)cc1)C(=O)SCF` [Example 43, (11beta,16alpha,17alpha)-9-fluoro-17-{[(fluoromethyl)thio]carbonyl}-11-hydroxy-16-methyl-3-oxoandrosta-1,4-dien-17-yl 4-(3-chloro-4-hydroxyphenoxy)benzoate] came in with an EC50 in experiment [1] of 26.4 nM. In addition, the IC50 in experiment [2] was 0.06 nM.

With `C[C@@H]1C[C@H]2[C@@H]3C[C@H](F)C4=CC(=O)C=C[C@]4(C)[C@@]3(F)[C@@H](O)C[C@]2(C)[C@@]1(OC(=O)c1ccc(Oc2ccc(O)c(Cl)c2)cc1)C(=O)OCF` [Example 44, Fluoromethyl (6alpha,11beta,16alpha,17alpha)-17-{[4-(3-chloro-4-hydroxyphenoxy)benzoyl]oxy}-6,9-difluoro-11-hydroxy-16-methyl-3-oxoandrosta-1,4-diene-17-carboxylate], the EC50 in experiment [1] was 6.7 nM. Further, the IC50 in experiment [2] was 0.029 nM.
